Measured values reported in PubChem BioAssay AID179 (DTP/NCI, 2004).
Calls of active or inactive are those of the source.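 The calls were made as follows: active = compounds giving half or more protection of infected cells from virus-caused growth loss, again on retest; inactive = the rest.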

System: CEM cells HIV-1 protection, formazan growth assay
Experiment: NCI AIDS Antiviral Assay
Details: for IC50: measured here: growth of uninfected CEM cells
Outline: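 Steps: treat uninfected and HIV-1-infected human CEM cells at five drug levels; quantify growth by soluble formazan; retest any compound reaching 50% protection; classify actives from the retest.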

Row | SMILES | EC50 [µM] | IC50 [µM] | outcome
1 | COc1cccc(C=C(C#N)C#N)c1OC | > 200 | > 100 | 
2 | C=C1C[C@@H]2C[C@@H](C)CC(O)[C@]2(CCCN)C1O (stereo partly drawn) |  |  | inactive
3 | O=C1/C(=C/c2ccc(Cl)cc2)COc2ccc(Br)cc21 | > 14.8 | > 14.8 | 
4 | CCn1nc(C)c2c1C(=O)NCC(=O)N2 | > 200 | > 200 | 
5 | CN(C)c1ccc(/C=C(\C#N)c2cccc(I)c2)cc1 | > 2 | 0.129 | 
6 | CCN1CCC(O)(c2ccc(Oc3ccc(Cl)cc3)cc2)C(C(=O)c2ccc(Oc3ccc(Cl)cc3)cc2)C1 (stereo not drawn) | > 200 | 7.59 | 
7 | Cc1ccc(S(=O)(=O)NCCCSCCSCCCN)cc1 | > 257 | 41.7 | 
8 | CCCC/C=C(\CCCNCCCC)[Si](C)(C)C | > 479 | 178 | 
9 | Cc1nc2sccn2c1C(=O)N/N=C1\SCC(=O)N1C | > 427 | > 427 | 
10 | CC12C(=C(C#N)C(=N)N1c1ccc(Cl)c(Cl)c1)C=C(O)CC2SCCS(=O)(=O)O (stereo not drawn) | 33.1 | 67.6 | 
11 | CCCCCCCCCCCCCCCCCCOP(=O)([O-])OC1CC[N+](C)(C)CC1 | > 204 | 1.91 | 
12 | CN1CCN(C2Sc3ccccc3C(=O)N3CCCC23)CC1 (stereo not drawn) | > 126 | > 126 | 
13 | Cc1ccc(/C(C#N)=C/c2ccc(N(C)C)cc2)cc1 | > 200 | 1.29 | 
14 | O=C1OC2C(O)OC3COC(=O)c4cc(O)c(O)c(O)c4-c4c(O)c(O)c5oc(=O)c6c(c(O)c(O)c7oc(=O)c4c5c76)-c4c(cc(O)c(O)c4O)C(=O)OC3C2OC(=O)c2cc(O)c(O)c(O)c2-c2c1cc(O)c(O)c2O (stereo not drawn) | 0.724 | 21.4 | 
15 | CCOP(=O)(OCC)/C(C)=N/O | > 1290 | > 1290 | 
16 | O=NNc1nc(-c2ccccn2)nc2ccccc12 | > 200 | 7.94 | 
17 | CC(C)(C)OC(=O)NNCC(O)COc1ccccc1 (stereo not drawn) | > 200 | 91.2 | 
18 | c1ccc2c(c1)OCc1nccn1-2 | > 200 | 97.7 | 
19 | Fc1ccc2nncc(SCc3ccc(Cl)cc3)c2c1 | > 87.1 | > 87.1 | 
20 | CC(CO)CCNc1ncnc2c1ncn2CCC(=O)O (stereo not drawn) | > 200 | > 200 | 
21 | C[As+](C)(C)CC1OC(OCC(O)COS(=O)(=O)[O-])C(O)C1O (stereo not drawn) |  |  | inactive
22 | N#Cc1c(NC(=O)CN2CCOCC2)c(C(=O)Nc2ccccc2)n2c1CCCC2 | > 200 | > 200 | 
23 | Cc1cccc(O)c1-c1nnc(CCCCCCCCc2nnc(-c3c(C)cccc3O)n2N)n1N | > 200 | 2.95 | 

Row | SMILES | EC50 [µM] | IC50 [µM] | outcome
24 | O=C1C[C@@H]2[C@@H](C=CC23CCCC3)N1O |  |  | inactive
25 | O=P1(Oc2ccccc2)C(c2ccccc2)C(c2ccccc2)=NN1c1ccccc1 (stereo not drawn) | > 12.3 | > 12.3 | 
26 | Cc1ccc(-c2c(C#N)c(-c3ccccc3)c(C#N)c(=O)n2NS(=O)(=O)c2ccc(C)cc2)cc1 | > 200 | 57.5 | 
27 | C[C@]12CCC(=O)C=C1CC[C@@H]1[C@@H]2[C@@H](O)C[C@@]2(C)[C@H]1CC[C@]2(O)C(=O)COC(=O)CCC(=O)O | > 200 | 6.03 | 
28 | NC(=O)c1cnc2sc3ccccc3n2c1=O | > 200 | > 200 | 
29 | C=CCSc1nn(CC=C)cc2ncnc1-2 | > 200 | > 200 | 
30 | CC1(C)CC(=O)C(=[N+]=[N-])C(=O)C1 | > 200 | > 200 | 
31 | O=C(Nc1cccc(NC(=O)c2nn[nH]n2)n1)c1nn[nH]n1 | > 200 | > 200 | 
32 | CN1CN(c2ccccc2)C2(CCN(C(=O)OC(C)(C)C)CC2)C1=O | > 100 | > 100 | 
33 | COc1ccc2c(N=[N+]=[N-])c(-c3ccccc3)c(=O)oc2c1 |  |  | inactive
34 | CCOC(=O)C[N+]1(C)CCC(O)CC1 (stereo not drawn) | > 200 | > 200 | 
35 | OCCC1(O)CCC(O)CC1 (stereo not drawn) |  |  | inactive
36 | O=C(O)c1cccc(Nc2c(C(=O)O)cccc2[N+](=O)[O-])c1 | > 200 | 6.31 | 
37 | COS(=O)(=O)c1c(N)n(C)c(=O)n(C)c1=O | > 200 | 66.1 | 
38 | CC1=CC(C)=Nc2ccc(C)cc2N1 | > 200 | 195 | 
39 | Cc1cc(OP2(=O)NCc3ncccc3O2)ccc1Cl (stereo not drawn) | > 200 | > 200 | 
40 | COC1/C=C/OC2(C)Oc3c(C)c(O)c4c(O)c(cc(OCC(=O)N(Cc5ccccc5)Cc5ccccc5)c4c3C2=O)NC(=O)/C(C)=C/C=C/C(C)C(O)C(C)C(O)C(C)C(OC(C)=O)C1C (stereo not drawn) |  |  | inactive
41 | Cc1cc(O)c2c(c1)C([C@]13Cc4cc(O)c5c(c4[C@H]1C=C[C@@H](O)C3O)C(=O)c1c(O)ccc(O)c1C5=O)OC2=O (stereo partly drawn) | > 6.61 | > 6.61 | 
42 | c1ccc2c3nc4ccccc4c-3scc2c1 | > 56.2 | 6.46 | 
43 | Cc1[nH]c(NC(=O)C(=O)O)c(C#N)c1C | > 200 | > 200 | 
44 | C[C@]12CCC3[C@@H](CC[C@@H]4c5nonc5CC[C@]34C)C1CCC2=O (stereo partly drawn) | > 57.5 | > 57.5 | 
45 | COc1ccc(C=C2C(=O)c3ccccc3C2=O)cc1 |  |  | inactive
46 | COc1cc(C2c3cc4c(cc3OC(N3CCOCC3)C2C)OCO4)ccc1O (stereo not drawn) | > 200 | 5.13 | 

Row | SMILES | EC50 [µM] | IC50 [µM] | outcome
47 | COc1ccc2c(c1)C(=O)CC(c1ccccc1)O2 (stereo not drawn) | > 200 | > 200 | 
48 | C[N+](C)(C)CC1CCCC/C1=N\OC(=O)c1ccccc1 (stereo not drawn) | > 603 | 575 | 
49 | NC(=O)/C(=N\NC(=O)C[n+]1ccccc1)C1NC(=O)NC1=O (stereo not drawn) | > 148 | > 148 | 
50 | CSc1ncc(Br)c(Nc2c[nH]c(=O)[nH]c2=O)n1 | > 200 | > 200 | 
51 | CCN(CC)c1nc(NC2CCCCC2)c2nc(N(CC)CC)nc(NC3CCCCC3)c2n1 | > 11.2 | 0.537 | 
52 | COc1ccc(NC(=O)C(=O)C2CNC(=O)NC2=O)c(OC)c1 (stereo not drawn) | > 209 | > 209 | 
53 | COc1ccc(-c2[nH]c3ccccc3c2CCNS(=O)(=O)c2ccc(C)cc2)cc1 |  |  | inactive
54 | CC(C)(C)OC(=O)NCCCCCCC(=O)Cc1ccccc1 | > 200 | 117 | 
55 | CCN(CC)c1c(C)nnc2c(C)c(-c3ccccc3)nn12 | > 3.55 | > 3.55 | 
56 | C1CSCCCSCCCSCCCSCCCSCCCSCCCSCCCSC1 | > 8.71 | > 8.71 | 
57 | O=C(CCl)N1CCN(c2ccccn2)CC1 | > 1050 |  | 
58 | Oc1cccc(/C=C/c2ccncc2)c1 | > 36.3 | > 36.3 | 
59 | Cc1c(C(=O)c2ccccc2)n(COCCCO[Si](C)(C)C(C)(C)C)c(=O)[nH]c1=O | > 200 | 11.7 | 
60 | O=C(Nc1c(-c2nc3ccccc3[nH]2)sc(=S)n1-c1ccccc1)c1ccccc1 | > 3.39 | > 3.39 | 
61 | OC1CCN2Cc3ccccc3N=C12 (stereo not drawn) | > 200 | > 200 | 
62 | Clc1ccc(SCCCCCCCCCCSc2ccc(Cl)cc2)cc1 | > 23.4 | > 23.4 | 
63 | Nc1ccc(S(=O)(=O)Nc2cnc3c(Cl)cccc3n2)cc1 | > 537 | 6.46 | 
64 | CN(C)CCCn1c2c3ccccc3ccc2c2oc(=O)c3ccccc3c21 | > 33.1 | 1.62 | 
65 | CN(C)C(=S)Oc1ccc2ccc(=O)oc2c1 | > 200 | > 200 | 
66 | Cc1ccsc1/C=N/Nc1nncc2ccccc12 | > 200 | 25.1 | 
67 | CCOC(=O)C(NC(=O)CC)(C(F)(F)F)P(=O)(OCC)OCC (stereo not drawn) | > 200 | > 200 | 
68 | CCOC(=O)/C=C\n1c(=O)cc(C)c2ccccc21 | > 200 | > 200 | 
69 | CCOC(=O)C1(C(=O)OCC)CC1(C(=O)OCC)C(=O)OCC |  |  | inactive

Row | SMILES | EC50 [µM] | IC50 [µM] | outcome
70 | Cc1c2[nH]c(c1CCC(=O)O)/C=c1\[n-]/c(c(C)c1CCC(=O)O)=C\c1[n-]c(c(C)c1C(C)O)/C=c1\[nH]/c(c(C)c1C(C)O)=C\2.[Cl][Pt+2][Cl] (stereo not drawn) | > 20.9 | 14.5 | 
71 | Cc1ccc(S(=O)(=O)C2=Cc3ccc(C(F)(F)F)cc3C2(O)c2cccc(C(F)(F)F)c2)cc1 (stereo not drawn) | > 200 | 2.19 | 
72 | CC(NC1=NCCO1)c1cccs1 (stereo not drawn) | > 200 | 138 | 
73 | CCOC(=O)C1=C(C#N)S(=O)(=O)c2c(oc(C)c2C)N1 | > 200 | > 200 | 
74 | O=c1c2cc(Br)ccc2nc(-c2ccccc2)n1NCC1(O)OCC(O)C(O)C1O (stereo not drawn) |  |  | inactive
75 | CCN1CCC(CNC(=O)c2ccc(N)cc2)N1CC (stereo not drawn) | > 200 | > 200 | 
76 | Cc1ccccc1Nc1nc2c(s1)C(=O)c1ccccc1C2=O |  |  | inactive
77 | CCCCNC(=S)Nc1nc(C(=O)NNC(=S)NCc2ccccc2)cs1 | > 126 | 26.3 | 
78 | Cc1nc2c(nc1C)C(=O)C(Br)=C(N)C2=O |  |  | inactive
79 | CC(C)(C)[Si](C)(C)OC[C@H]1O[C@@H](n2ccc(=O)[nH]c2=O)[C@H](O[Si](C)(C)C(C)(C)C)[C@]1(O)[C@H](Cl)C(N)=O | > 200 | 3.72 | 
80 | CN1C(=O)CC2(C)c3cc(O)ccc3N(C)C12 (stereo not drawn) |  |  | inactive
81 | S=C(N/N=C(/c1ccccc1)c1ccccn1)Nc1ccccc1 | > 0.2 | 0.0977 | 
82 | Cc1cc2cc3cc(C)c(N)cc3nc2cc1N | > 2 | 0.661 | 
83 | COc1cc2c(cc1OC)C(=O)/C(=C/c1ccccc1)CC2 | > 200 | 117 | 
84 | Cn1c(=O)c2nc3c(=O)n(C)c(=O)n(C)c3nc2n(C)c1=O | > 200 | 79.4 | 
85 | C1OC1CN1CCN(CC2CO2)CC1 (stereo not drawn) |  |  | inactive
86 | Cc1cn(C2C[C@H](O)[C@]3(CO)C[C@H]23)c(=O)[nH]c1=O (stereo partly drawn) | > 100 | > 100 | 
87 | Cc1ccc(/C=C2/N=C(N/N=C\C(O)C(O)C(O)CO)NC2=O)cc1 (stereo not drawn) | > 200 | 110 | inactive
88 | Cc1cc(C)c2cnnn2n1 | > 1700 | > 1700 | 
89 | CCOC(=N)CNC(=O)c1ccccc1 | > 200 | > 200 | 
90 | COc1ccc(N2C(=O)C3CC(c4ccc(C)cc4)c4c([nH]c5ccccc45)C3C2=O)cc1 (stereo not drawn) | > 2.4 | > 2.4 | 
91 | O=C1/C(=C/c2ccccc2)CNC/C1=C\c1ccccc1 |  |  | inactive
92 | Cc1cc(NCCCCCCCNc2cc(C)nc3cc([N+](=O)[O-])ccc23)c2ccc([N+](=O)[O-])cc2n1 |  |  | inactive
